{"source": "patent US20240156765A1", "about": "“METHODS OF NEUROPROTECTION AND USES THEREOF” (UNIVERSITY OF TENNESSEE RESEARCH FOUNDATION, priority 2020, published 2024)", "key": {"[1]": {"test_system": "Dutch belted rabbits", "assay": "Single-drop IOP-lowering efficacy of PRG eye drop formulations", "type": "in vivo", "method": "At 24 hours after dosing, IOP is still reduced by >20%.\nMoreover, the combined effect of all three layers of our W/O/W ME is critical for enhancing the efficacy of PRG. […] Using this same model, we will evaluate our optimized formulations from Test 1.1.\nResearch Design and Methods: Dutch belted rabbits (Envigo Rabbitry; formerly Covance) will be used in this single-dose design study. Rabbits from this rabbitry can have higher baseline IOP values than those purchased from other rabbitries. Rabbits (equally balanced between males and females) will be acclimated to handling and IOP measurements for at least seven days before initiation of the study. Slit-lamp biomicroscopic and fundoscopic examinations will be performed before and after the study. Our top three formulations from Test 1.1 will be tested in this model using our methods^12. The IOP of both eyes will be measured using a rebound tonometer (Tono-Pen AVIA Vet, Reichert) immediately before the formulation application (baseline, 8 am) and at hourly time intervals after application until the IOP returns to baseline. Using a sterile micropipette tip, thirty microliters of the formulation containing PRG ME or blank control will be instilled topically into one eye of each rabbit, while the fellow eye will receive the formulation vehicle, and therefore serve as controls. Rabbits will be dosed daily at 8 am for 21 days, and IOP collected at 8 am (immediately pre-dosing) and at the time at which the maximum IOP reduction is measured (Tmax) using our methods^12. Curves similar to FIG. 16 will be generated. Biocompatibility of the antioxidant-containing formulations will be assessed using with slit lamp biomicroscopy as in FIG. 17. The person performing the studies will be blinded regarding which eye receives the medicated formation and which one receives the blank control for each rabbit. Assuming a power of 80%, and a marginal difference in IOP outcome of 30%, we estimate that this study will require 10 rabbits. We will also evaluate these formulations in C57Bl/6J (B6) mice and cynomolgus monkeys, which will allow for species confirmation and comparison."}, "[2]": {"settings": "not told; cited from earlier work"}, "[3]": {"settings": "PRG in an oral solution; cited from earlier work"}, "[4]": {"test_system": "intraocular pressure (IOP)", "assay": "IOP lowering by topically applied pregabalin without microemulsion (aqueous)", "type": "in vivo"}, "[5]": {"target": "CACNA2D1 (Homo sapiens, UniProt P54289)", "sequence (P54289 25-1103)": "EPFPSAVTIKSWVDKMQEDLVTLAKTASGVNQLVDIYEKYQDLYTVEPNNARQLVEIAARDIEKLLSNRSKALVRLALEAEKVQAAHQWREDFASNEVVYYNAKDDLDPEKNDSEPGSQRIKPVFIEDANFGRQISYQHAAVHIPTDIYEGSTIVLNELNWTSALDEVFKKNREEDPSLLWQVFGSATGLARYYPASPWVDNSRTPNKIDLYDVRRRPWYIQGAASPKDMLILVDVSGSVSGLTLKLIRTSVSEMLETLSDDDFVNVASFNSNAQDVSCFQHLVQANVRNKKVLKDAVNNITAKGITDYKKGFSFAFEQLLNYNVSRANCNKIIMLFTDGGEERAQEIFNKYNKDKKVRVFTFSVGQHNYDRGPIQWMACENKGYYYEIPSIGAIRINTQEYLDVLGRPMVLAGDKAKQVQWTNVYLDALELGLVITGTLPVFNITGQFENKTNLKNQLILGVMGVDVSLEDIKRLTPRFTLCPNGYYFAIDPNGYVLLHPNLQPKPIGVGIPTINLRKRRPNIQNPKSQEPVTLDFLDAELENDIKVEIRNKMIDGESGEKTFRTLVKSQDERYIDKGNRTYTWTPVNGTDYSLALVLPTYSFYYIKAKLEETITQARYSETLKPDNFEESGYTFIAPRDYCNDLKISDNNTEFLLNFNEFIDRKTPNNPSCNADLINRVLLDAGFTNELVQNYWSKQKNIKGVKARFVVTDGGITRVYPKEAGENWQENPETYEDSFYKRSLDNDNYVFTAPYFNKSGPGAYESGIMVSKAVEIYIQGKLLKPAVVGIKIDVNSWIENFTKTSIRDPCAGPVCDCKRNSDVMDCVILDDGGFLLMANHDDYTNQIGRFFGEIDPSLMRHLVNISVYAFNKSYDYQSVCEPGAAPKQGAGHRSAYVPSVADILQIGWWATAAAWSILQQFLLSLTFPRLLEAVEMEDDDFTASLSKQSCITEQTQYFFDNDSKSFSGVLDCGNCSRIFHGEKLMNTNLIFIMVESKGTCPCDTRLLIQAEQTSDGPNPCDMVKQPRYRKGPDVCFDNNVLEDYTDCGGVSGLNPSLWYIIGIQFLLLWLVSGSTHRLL", "settings": "listed as PRG; cited from earlier work"}, "[6]": {"test_system": "BXD29 mice", "assay": "Daily topical PRG ME in BXD29 mice (normal tension glaucoma model): IOP and optic nerve axons", "type": "in vivo", "from_the_text": "Objective: An obstacle in this study is the in vivo assessment of any direct neuroprotective effects of PRG that are independent of IOP lowering. […] These characteristics make BXD29 ideal for evaluating the direct neuroprotective properties of PRG on RGCs by eliminating indirect effects that would be mediated through IOP reduction.\nWe have evidence to show, without wishing to be bound by theory, that topical dosing with our PRG ME is neuroprotective to RGC axons in the ON. We dosed BXD29 mice daily with PRG ME beginning at 5 weeks of age (FIG. 9A) before ON degeneration was marked. […] In contrast, ON from mice dosed with unmedicated ME had loss of axon profiles and increased areas of debris (FIG. 9C). The studies will evaluate the role of PRG as a RGC neuroprotectant and define its cellular mechanism of action."}, "[7]": {"test_system": "γ-aminobutyric acid (GABA) receptors", "settings": "cited from earlier work"}, "[8]": {"assay": "PRG release from formulation", "type": "physicochemical", "settings": "as an aqueous eye drop"}, "[9]": {"settings": "PRG in the absence of the ME (Carbopol 981 gel), single drop"}, "[10]": {"settings": "topically applied PRG, aqueous / initial formulation without ME"}, "[11]": {"settings": "topically applied PRG, aqueous / initial formulation without ME, listed as PRG"}}}
{"smiles": "CC(C)C[C@H](CN)CC(=O)O", "note": "[pregabalin]", "values": [{"measurement": "AUC of IOP reduction", "setting": "[1]; PRG in the absence of the ME", "value": 38, "unit": "mmHg·hr"}, {"measurement": "IOP reduction", "setting": "[1]; [9]", "value": 30, "unit": "%"}, {"measurement": "time at which IOP returns to baseline", "setting": "[1]; [9]", "value": 10, "unit": "h"}, {"measurement": "IOP lowering, dose dependence", "setting": "[1]; topical dosing with PRG, Dutch belted rabbits", "value": "dose dependent manner"}, {"measurement": "membrane permeability", "setting": "[2]", "value": "high"}, {"measurement": "chemical stability", "setting": "[3]", "value": "> 1", "unit": "year"}, {"measurement": "IOP lowering, dose dependence", "setting": "[4]; topical dosing", "value": "dose dependent manner"}, {"measurement": "IOP reduction", "setting": "[4]; [10]", "value": 20, "unit": "%"}, {"measurement": "time at which IOP returns to baseline", "setting": "[4]; [10]", "value": "≤ 7", "unit": "h"}, {"measurement": "IOP reduction", "setting": "[4]; [11]", "value": 17, "unit": "%"}, {"measurement": "time at which IOP returns to baseline", "setting": "[4]; [11]", "value": 6, "unit": "h"}, {"measurement": "IOP lowering", "setting": "[4]; without the microemulsion", "value": "about 20%"}, {"measurement": "time at which IOP returns to baseline", "setting": "[4]; without the microemulsion", "value": "8 to 10", "unit": "h"}, {"measurement": "affinity for CACNA2D1", "setting": "[5]", "value": "high affinity and specificity"}, {"measurement": "optic nerve (ON) axons", "setting": "[6]; daily topical dosing for 6 weeks from 5 weeks of age", "value": "prevents degeneration of axons"}, {"measurement": "IOP response", "setting": "[6]; topical dosing, up to 6 weeks daily", "value": "unresponsive"}, {"measurement": "binding to GABA receptors", "setting": "[7]", "value": "does not bind"}, {"measurement": "PRG release time", "setting": "[8]", "value": 3, "unit": "h"}]}
